Measurements as given in ChEMBL document CHEMBL1150306, “2-Trifluoroacetylthiophenes, a novel series of potent and selective class II histone deacetylase inhibitors” (Bioorg Med Chem Lett, 2008).

Experiments:
[1] = target: T1, Histone deacetylase 3 (Homo sapiens, UniProt O15379); assay: Inhibition of HDAC3
[2] = target: Histone deacetylase 4 (Homo sapiens, UniProt P56524, H976Y); assay: Inhibition of HDAC4GOF mutant expressed in Escherichia coli
[3] = target: Histone deacetylase 1 (Homo sapiens, UniProt Q13547); assay: Inhibition of HDAC1
Sequence of Histone deacetylase 1 (Q13547 whole entry): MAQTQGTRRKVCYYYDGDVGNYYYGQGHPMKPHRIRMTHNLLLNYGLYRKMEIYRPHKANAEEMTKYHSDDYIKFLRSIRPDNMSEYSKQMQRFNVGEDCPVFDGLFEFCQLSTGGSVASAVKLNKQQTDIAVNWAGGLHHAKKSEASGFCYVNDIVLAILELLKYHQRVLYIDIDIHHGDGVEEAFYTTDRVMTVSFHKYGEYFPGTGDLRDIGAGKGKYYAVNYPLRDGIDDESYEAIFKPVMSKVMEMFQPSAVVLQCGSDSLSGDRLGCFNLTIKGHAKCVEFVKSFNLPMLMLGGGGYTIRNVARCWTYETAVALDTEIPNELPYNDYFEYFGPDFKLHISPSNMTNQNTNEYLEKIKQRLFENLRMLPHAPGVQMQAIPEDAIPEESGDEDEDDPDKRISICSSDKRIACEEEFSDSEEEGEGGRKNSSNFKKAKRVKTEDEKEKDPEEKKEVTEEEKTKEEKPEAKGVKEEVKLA

[4] = target: Tubulin; assay: Inhibition of tubulin deacetylation in human HCT116 cells; assay type: cell-based; settings: hct-116
[5] = target: T2, Protein deacetylase HDAC6 (Homo sapiens, UniProt Q9UBN7); assay: Inhibition of HDAC6
T2 sequence (Q9UBN7 whole entry): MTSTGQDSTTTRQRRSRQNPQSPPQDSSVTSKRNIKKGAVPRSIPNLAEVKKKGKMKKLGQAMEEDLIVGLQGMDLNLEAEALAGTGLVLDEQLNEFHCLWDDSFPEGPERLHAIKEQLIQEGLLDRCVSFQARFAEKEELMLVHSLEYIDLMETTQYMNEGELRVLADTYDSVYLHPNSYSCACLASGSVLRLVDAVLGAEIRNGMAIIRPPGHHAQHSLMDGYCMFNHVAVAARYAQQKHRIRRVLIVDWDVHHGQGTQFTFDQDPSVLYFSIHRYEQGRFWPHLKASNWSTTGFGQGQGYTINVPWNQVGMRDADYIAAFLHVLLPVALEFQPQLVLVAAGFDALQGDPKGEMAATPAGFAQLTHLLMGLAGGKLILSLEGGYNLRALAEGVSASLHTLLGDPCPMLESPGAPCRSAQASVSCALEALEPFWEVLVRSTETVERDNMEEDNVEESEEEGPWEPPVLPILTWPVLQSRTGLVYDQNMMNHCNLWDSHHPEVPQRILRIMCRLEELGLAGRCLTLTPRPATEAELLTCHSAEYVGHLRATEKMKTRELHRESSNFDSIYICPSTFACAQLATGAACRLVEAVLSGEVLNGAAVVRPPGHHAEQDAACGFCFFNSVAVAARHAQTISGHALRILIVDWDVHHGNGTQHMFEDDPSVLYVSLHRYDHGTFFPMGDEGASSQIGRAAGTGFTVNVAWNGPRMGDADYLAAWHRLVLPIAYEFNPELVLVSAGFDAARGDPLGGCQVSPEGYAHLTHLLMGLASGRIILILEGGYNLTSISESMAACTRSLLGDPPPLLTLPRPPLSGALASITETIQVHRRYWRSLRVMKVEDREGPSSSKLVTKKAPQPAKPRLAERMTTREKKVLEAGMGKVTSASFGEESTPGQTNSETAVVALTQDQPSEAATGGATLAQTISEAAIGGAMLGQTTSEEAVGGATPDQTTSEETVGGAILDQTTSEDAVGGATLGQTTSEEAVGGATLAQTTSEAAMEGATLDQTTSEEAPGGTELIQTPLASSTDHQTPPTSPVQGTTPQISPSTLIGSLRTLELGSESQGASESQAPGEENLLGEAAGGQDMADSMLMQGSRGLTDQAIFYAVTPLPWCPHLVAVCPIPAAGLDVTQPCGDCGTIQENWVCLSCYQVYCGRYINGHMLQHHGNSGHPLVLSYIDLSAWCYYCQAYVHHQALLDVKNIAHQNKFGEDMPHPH

[6] = target: Histone deacetylase 4 (Homo sapiens, UniProt P56524); assay: Inhibition of wild type HDAC4 expressed in Escherichia coli
Sequence of Histone deacetylase 4 (Homo sapiens, UniProt P56524) (P56524 whole entry): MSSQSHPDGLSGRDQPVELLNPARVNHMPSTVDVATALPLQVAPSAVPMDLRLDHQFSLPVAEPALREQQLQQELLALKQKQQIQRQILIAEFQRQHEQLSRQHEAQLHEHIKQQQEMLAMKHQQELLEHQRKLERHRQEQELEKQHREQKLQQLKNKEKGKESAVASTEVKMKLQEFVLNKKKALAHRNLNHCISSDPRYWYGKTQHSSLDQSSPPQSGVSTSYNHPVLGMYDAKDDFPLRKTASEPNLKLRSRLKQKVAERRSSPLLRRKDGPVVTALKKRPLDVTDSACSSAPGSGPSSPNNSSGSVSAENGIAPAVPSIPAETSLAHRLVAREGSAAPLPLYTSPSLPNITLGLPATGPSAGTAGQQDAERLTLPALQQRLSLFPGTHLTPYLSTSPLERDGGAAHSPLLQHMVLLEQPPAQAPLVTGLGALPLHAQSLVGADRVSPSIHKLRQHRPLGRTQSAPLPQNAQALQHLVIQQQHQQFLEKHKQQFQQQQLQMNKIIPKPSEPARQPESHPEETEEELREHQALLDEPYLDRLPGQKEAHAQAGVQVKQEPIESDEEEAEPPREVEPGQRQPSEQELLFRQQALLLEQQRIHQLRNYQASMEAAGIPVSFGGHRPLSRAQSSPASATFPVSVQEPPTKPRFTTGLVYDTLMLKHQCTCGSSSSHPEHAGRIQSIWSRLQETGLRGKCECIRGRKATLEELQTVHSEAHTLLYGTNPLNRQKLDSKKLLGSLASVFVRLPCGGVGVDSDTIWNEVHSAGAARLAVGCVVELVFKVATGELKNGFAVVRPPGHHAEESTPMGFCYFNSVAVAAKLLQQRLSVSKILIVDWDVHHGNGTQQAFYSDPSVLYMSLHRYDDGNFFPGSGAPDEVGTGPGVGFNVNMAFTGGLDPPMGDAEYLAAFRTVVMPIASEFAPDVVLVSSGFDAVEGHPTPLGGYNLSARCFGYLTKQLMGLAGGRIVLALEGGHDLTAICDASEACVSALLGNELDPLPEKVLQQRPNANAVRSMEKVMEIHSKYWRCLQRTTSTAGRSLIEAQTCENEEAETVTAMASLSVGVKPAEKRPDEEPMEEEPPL

[7] = target: T1, Histone deacetylase 3; assay: Inhibition of HDAC3 at 5 uM
[8] = target: T3, Protein deacetylase HDAC6 (Homo sapiens) (UniProt Q9UBN7); assay: Inhibition of HDAC6 at 9 nM
T3 sequence (whole entry): T2 sequence (Q9UBN7 whole entry)

T1 sequence (O15379 whole entry): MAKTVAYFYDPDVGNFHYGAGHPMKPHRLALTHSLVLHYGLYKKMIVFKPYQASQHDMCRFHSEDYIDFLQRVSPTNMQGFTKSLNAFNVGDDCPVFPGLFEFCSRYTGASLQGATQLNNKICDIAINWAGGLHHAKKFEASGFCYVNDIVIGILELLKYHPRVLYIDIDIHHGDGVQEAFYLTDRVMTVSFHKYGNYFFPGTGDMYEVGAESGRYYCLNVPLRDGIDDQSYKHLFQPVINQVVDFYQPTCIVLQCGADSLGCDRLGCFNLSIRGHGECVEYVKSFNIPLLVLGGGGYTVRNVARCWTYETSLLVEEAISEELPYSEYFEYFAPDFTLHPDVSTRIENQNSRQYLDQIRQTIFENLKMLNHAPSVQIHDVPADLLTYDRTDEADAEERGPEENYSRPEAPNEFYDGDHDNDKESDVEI
Sequence of Histone deacetylase 4 (Homo sapiens, UniProt P56524, H976Y) (P56524 whole entry H976Y): as the sequence (P56524 whole entry) above, with H976Y counted along it

Row | IC50 [1] | IC50 [2] | IC50 [3] | IC50 [4] | IC50 [5] | IC50 [6] | inhibition [7] | inhibition [8] | Compound
1 | 670 nM | 87 nM | 580 nM | 12000 nM | 89 nM | 98 nM | – | – | CN(Cc1ccc2nccnc2c1)C(=O)c1ccc(C(=O)C(F)(F)F)s1
2 | – | 370 nM | 5500 nM | – | 310 nM | 320 nM | 44% | – | O=C(c1ccc(C(=O)C(F)(F)F)s1)N1CCn2c(-c3ccccc3)cnc2C1
3 | 10 nM | 100 nM | – | – | – | 2700 nM | – | 94% | C[C@@H](NC(=O)c1ccc(C(=O)NO)s1)c1ccccc1
